Reference: patent US11766451B2, “Utilizing polymers and antibiotics to enhance antimicrobial activity and inhibit antibiotic resistance” (International Business Machines Corporation, priority 2018, dated 2023)
Entries after “also recorded” stand apart in the source; their conditions may differ.

Legend:
E. coli = test: Checkerboard / broth microdilution MIC; type: cell-based, Escherichia coli
Description: To evaluate antibacterial activity of antimicrobial polymer-antibiotic 306 combination therapies, the checkerboard method was used to create chart 400. By using this method, the minimum inhibitory concentration (“MIC”) of antibiotics 306, antimicrobial polymers (e.g., characterized by the first chemical structure 100 and/or the second chemical structure 102), and/or antibiotics 306/antimicrobial polymers (e.g., characterized by the first chemical structure 100 and/or the second chemical structure 102) combination at varying polymer concentrations can be determined. MIC was measured based on the broth microdilution method. 50 microliters (“μL”) of the example polycarbonate 200 at a serious of concentrations (micrograms per milliliter (μg/mL)) was added into a 96-well plate. […] Microbes (e.g., S. aureus, A. baumannii, E. coli, and/or P. aeruginosa) at exponential growth phases were diluted with […] (“MHB”) to about 10^5 colony forming units (“CFU”) per milliliter (CFU/mL), and 100 μL of diluted microbes were added into each well of the 96-well plate with 100 μL of antimicrobial polymer-antibiotic 306 mixture. […] The concentration at which there was no bacterial growth observed by naked eyes or a microplate reader at 600 nanometers (nm) was recorded as the MIC. […]

[1] = system: antibiotic-resistant strains of bacteria (e.g., A. baumannii); test: MIC against susceptible and antibiotic-resistant strains (table 700); type: cell-based, Acinetobacter baumannii
Description: In addition to antibiotic-susceptible bacteria, antibiotic-resistant strains of bacteria (e.g., indicated with a star in FIG. 7) were also employed to study the effect of antibiotic 306/example polycarbonate 200 combination on antibacterial activity.

A. baumannii (BAA-1709) = test: Checkerboard / broth microdilution MIC; type: cell-based, Acinetobacter baumannii; settings: for Change of antibiotic MIC as polymer concentration increased from 1/16×MICp to ½×MICp: with example polycarbonate 200 (table 500); for MIC of rifampicin at 1/2 × MIC of adjuvant: rifampicin with the labelled adjuvant at 1/2 × its MIC; for MIC of rifampicin at 1/4 × MIC of adjuvant: rifampicin with the labelled adjuvant at 1/4 × its MIC; for MIC of rifampicin at 1/8 × MIC of adjuvant: rifampicin with the labelled adjuvant at 1/8 × its MIC
Description: To evaluate antibacterial activity of antimicrobial polymer-antibiotic 306 combination therapies, the checkerboard method was used to create chart 400. By using this method, the minimum inhibitory concentration (“MIC”) of antibiotics 306, antimicrobial polymers (e.g., characterized by the first chemical structure 100 and/or the second chemical structure 102), and/or antibiotics 306/antimicrobial polymers (e.g., characterized by the first chemical structure 100 and/or the second chemical structure 102) combination at varying polymer concentrations can be determined. MIC was measured based on the broth microdilution method. 50 microliters (“μL”) of the example polycarbonate 200 at a serious of concentrations (micrograms per milliliter (μg/mL)) was added into a 96-well plate. […] Microbes (e.g., S. aureus, A. baumannii, E. coli, and/or P. aeruginosa) at exponential growth phases were diluted with […] (“MHB”) to about 10^5 colony forming units (“CFU”) per milliliter (CFU/mL), and 100 μL of diluted microbes were added into each well of the 96-well plate with 100 μL of antimicrobial polymer-antibiotic 306 mixture. The 96-well plate was incubated at 37 degrees Celsius (“° C.”) under shaking of 100 revolutions per minute (“rpm”) for about 18 to 20 hours. The concentration at which there was no bacterial growth observed by naked eyes or a microplate reader at 600 nanometers (nm) was recorded as the MIC. The checkerboard experiments were performed three times for each antimicrobial polymer-antibiotic 306 combination.

K. pneumoniae = test: Concentrations (1/2 MIC, MBC) for 18 h bactericidal plate test; type: cell-based; settings: Klebsiella pneumoniae, used together with example polycarbonate 200 at ½ MIC, read-out: minimum bactericidal concentration (“MBC”)
Description: (§1) FIG. 13 illustrates a diagram of example, non-limiting table 1300 and/or table 1302, which can depict the synergistic effect of one or more combination therapies, which can comprise one or more antimicrobial polymers (e.g., characterized by the first chemical structure 100 and/or the second chemical structure 102) in combination with one or more antibiotics 306, against various bacteria (e.g., Gram-negative bacteria and/or Gram-positive bacteria) including antibiotic-resistant strains. Repetitive description of like elements employed in other embodiments described herein is omitted for sake of brevity.
(§2) Further, FIG. 13 illustrates a diagram of example, non-limiting photos 1304 of three-component plates with bacteria treated by example polycarbonate 200, rifampicin, and/or a combination thereof for 18 hours. […] The data and/or photos 1304 depicted in FIG. 13 can be representative of three biological replicates, with the “*” denoting antibiotic-resistant strains of bacteria.

E. aerogenes = test: as above; type: cell-based; settings: Klebsiella aerogenes, used together with example polycarbonate 200 at ½ MIC, read-out: minimum bactericidal concentration (“MBC”)
Description: as §1, §2

A. baumannii strains = test: as above; type: cell-based; settings: Acinetobacter baumannii; all the A. baumannii strains; used together with example polycarbonate 200 at ½ MIC; read-out: minimum bactericidal concentration (“MBC”)
Description: as §1, §2

A. baumannii BAA-1709 [2] = type: cell-based, Acinetobacter baumannii; settings: for Delay of resistance of the bacteria against the antibiotic: in the presence of example polycarbonate 200 at ¼×MICp; for MIC of pure antibiotic over 30 generations: antibiotic only
Protocol: To monitor development of antibiotic 306 resistance in A. baumannii, antibiotics 306 at sub-lethal doses were used in combination with the example polycarbonate 200 to repeatedly treat A. baumannii BAA-1709. With concentrations of the example polycarbonate 200 fixed at ¼ or ½×MIC, the MIC of antibiotics 306 was measured by the broth microdilution method. At half of the antibiotic 306 MIC, the survived bacteria, which reached logarithmic growth phase, were collected for MIC measurement of the subsequent passage. The development of antibiotic 306 resistance was monitored for 30 passages and the MIC of the antibiotics 306 at ¼ or ½×MIC of the antimicrobial polymer (e.g., characterized by the first chemical structure 100 and/or the second chemical structure 102) was recorded for each passage. The resistance development of antibiotics 306 only and polymer only was also evaluated over 30 passages.

[3] = system: A. baumannii (e.g., ATCC BAA-1709); test: Bacterial count after 18 hours of treatment; type: cell-based, Acinetobacter baumannii; settings: treatment for 18 hours; polymer 3.9 or 7.8 μg/mL (graph 1002)
Protocol: The results shown in graph 1002 were achieved after treatment for 18 hours.
Further, FIG. 11 illustrates a diagram of example, non-limiting graph 1102, graph 1110, and/or graph 1118, which can depict that one or more combination therapies comprising one or more antimicrobial polymers (e.g., characterized by the first chemical structure 100, such as example polycarbonate 200, and/or the second chemical structure 102) and one or more antibiotics 306 can show stronger synergistic bactericidal effect than traditional combination therapies as evidenced by the bacterial count after 18 hours of treating A. baumannii (e.g., ATCC BAA-1709).

A. baumannii BAA-1709 [4] = test: Killing kinetics (CFU counting) under combination treatments; type: cell-based, Acinetobacter baumannii; settings: rifampicin 0.008 μg/mL plus the labelled adjuvant at ½×MIC; up to 24 h
Description: To compare the efficiency of an antimicrobial polymer/rifampicin combination and an antimicrobial polymer/polymyxin combination, the CFU of A. baumannii BAA-1709 under different combination treatments were studied. […] The results of CFU counting are presented as mean±standard deviation of triplicate samples.

[5] = repeated sub-MIC exposure, no polymer

## CO[C@H]1/C=C/O[C@@]2(C)Oc3c(C)c(O)c4c(O)c(c(/C=N/N5CCN(C)CC5)c(O)c4c3C2=O)NC(=O)/C(C)=C\C=C\[C@H](C)[C@H](O)[C@@H](C)[C@@H](O)[C@@H](C)[C@H](OC(C)=O)[C@@H]1C [rifampicin]
E. coli; with example polycarbonate 200 at ½×MICp
  MIC reduction at ½×MICp of the antimicrobial polymer: over 500 fold
[1]; antibiotic-resistant strains, with example polycarbonate 200
  MIC of rifampicin at antimicrobial polymer concentration of ¼×MICp: 0.5 µg/mL
[1]; both susceptible and antibiotic-resistant A. baumannii strains
  MIC reduction of rifampicin with polycarbonates of first chemical structure 100: up to 2048 fold
A. baumannii (BAA-1709); with example polycarbonate 200
  MIC reduction compared with pure rifampicin: over 2000 folds
A. baumannii (BAA-1709); with example polycarbonate 200 at ¼×MICp (e.g., 4 μg/mL)
  MIC of antibiotic in the presence of the antimicrobial polymer at ¼×MICp: 0.13 µg/mL
A. baumannii (BAA-1709); with example polycarbonate 200 at ½×MICp (e.g., 8 μg/mL)
  MIC of antibiotic in the presence of the antimicrobial polymer at ½×MICp: 0.002 µg/mL
K. pneumoniae
  MBC: 0.5 µg/mL
E. aerogenes
  MBC: 2 µg/mL
A. baumannii strains
  MBC: 0.015 µg/mL
A. baumannii BAA-1709 [2]
  Delay of resistance of the bacteria against the antibiotic: 17 generations

## CC[C@H]1OC(=O)[C@H](C)[C@@H](O[C@H]2C[C@@](C)(OC)[C@@H](O)[C@H](C)O2)[C@H](C)[C@@H](O[C@@H]2O[C@H](C)C[C@H](N(C)C)[C@H]2O)[C@](C)(O)C[C@@H](C)CN(C)[C@H](C)[C@@H](O)[C@]1(C)O [azithromycin]
E. coli
  Effect of example polycarbonate 200 on antibiotic potency: enhance the potency
A. baumannii (BAA-1709)
  Change of antibiotic MIC as polymer concentration increased from 1/16×MICp to ½×MICp: significantly reduced
A. baumannii BAA-1709 [2]
  MIC of pure antibiotic over 30 generations: increased
A. baumannii BAA-1709 [2]; polymer fixed at ¼×MICp
  MIC of antibiotic over 30 generations in the presence of example polycarbonate 200 at ¼×MICp: did not change

## colistin
A. baumannii (BAA-1709)
  MIC of rifampicin at 1/2 × MIC of adjuvant: 0.06 µg/mL
  MIC of rifampicin at 1/4 × MIC of adjuvant: 2.0 µg/mL
  MIC of rifampicin at 1/8 × MIC of adjuvant: 3.9 µg/mL
[3]
  Effective dose of colistin as concentration of example polycarbonate 200 increases: reduced
A. baumannii BAA-1709 [4]
  Bactericidal activity of rifampicin combined with adjuvant (CFU over time): no bactericidal activity over 24 h; also recorded: no bactericidal effect up to 24 hours

## CC1(C)S[C@@H]2[C@H](NC(=O)Cc3ccccc3)C(=O)N2[C@H]1C(=O)O [Penicillin G, Benzylpenicillin]
A. baumannii (BAA-1709); antibiotic alone, no polymer
  MIC of antibiotics 306 w/o polymer: 62.5 µg/mL
A. baumannii (BAA-1709)
  Change of antibiotic MIC as polymer concentration increased from 1/16×MICp to ½×MICp: significantly reduced
A. baumannii (BAA-1709); with example polyionene 206 at 1/2 × MICp (MICp 7.8 μg/mL)
  MIC of antibiotics 306 at 1/2 × MICp: 7.8 µg/mL
A. baumannii (BAA-1709); with example polyionene 206 at 1/4 × MICp (MICp 7.8 μg/mL)
  MIC of antibiotics 306 at 1/4 × MICp: 31.3 µg/mL
A. baumannii (BAA-1709); with example polyionene 206 at 1/8 × MICp (MICp 7.8 μg/mL)
  MIC of antibiotics 306 at 1/8 × MICp: 62.5 µg/mL
A. baumannii (BAA-1709); with example polyionene 206 at 1/16 × MICp (MICp 7.8 μg/mL)
  MIC of antibiotics 306 at 1/16 × MICp: 62.5 µg/mL
A. baumannii BAA-1709 [2]
  MIC of pure antibiotic over 30 generations: increased
  Delay of resistance of the bacteria against the antibiotic: 22 generations
A. baumannii BAA-1709 [2]; [5]
  MIC of pure antibiotic at generation 5: 125 µg/mL
  MIC of pure antibiotic at generation 30: 1000 µg/mL
A. baumannii BAA-1709 [2]; starting value
  MIC of pure antibiotic before resistance evolution: 62.5 µg/mL

## Polymyxin B
A. baumannii (BAA-1709)
  MIC of rifampicin at 1/2 × MIC of adjuvant: 0.5 µg/mL
  MIC of rifampicin at 1/4 × MIC of adjuvant: 2.0 µg/mL
  MIC of rifampicin at 1/8 × MIC of adjuvant: 3.9 µg/mL
A. baumannii BAA-1709 [4]
  Bactericidal activity of rifampicin combined with adjuvant (CFU over time): no bactericidal activity over 24 h; also recorded: no bactericidal effect up to 24 hours
